Consider one molecule from US10548894B2, “Combination therapy” (Array BioPharma Inc., priority 2013, dated 2020).

Experiment [1] concerns WM-266-4 cells. The experiment is described as follows: ATP-based CTG (Cell Titer Glo) cell viability assay, 72 h. The note with it: Homo sapiens, WM-266-4 parent, single agent. As to the method: (§1) Compound stocks are prepared in DMSO at a final concentration of 10 mM. Working stocks are serially diluted in the appropriate cell culture medium in 3-fold increments to achieve final assay concentrations ranging from 2.7 μM to 1.2 nM.
(§2) A-375 and WM-266-4 cells were purchased from American Type Culture Collection (ATCC). The A-375 cells were cultured in DMEM medium (ATCC) and the WM-266-4 cells were cultured in EMEM medium (ATCC) both supplemented with 10% fetal bovine serum (Gibco) and incubated at 37° C./5% CO2. The cell lines engineered to express commonly occurring alleles indicative of resistance were acquired from Novartis-Emeryville. These resistant models include, A-375 cells expressing mutant MEK1P124L, truncated p61-BRAFV600E, or mutant NRASQ61K, and WM-266-4 cells expressing mutant MEK1C121S, truncated p61-BRAFV600E, or mutant NRASQ61K. These cells were cultured in the appropriate parental medium with selection marker G418 and in the presence of 5 uM LFE158 (MEK mutants) or LIH720 (truncated p61-BRAFV600E).
(§3) For screening, cells were seeded in 80 ul of medium in 384-well plates (Thermo Scientific, cat#4332) at 500 (A-375) or 750 (WM-266-4) cell densities per well using a MultiDrop Combi (Thermo-Fisher) with an 8-channel standard cassette. To promote an even distribution of cells across the entire well, cells were briefly centrifuged at 1000 RPM and incubated at room temperature 30 minutes. All plates were incubated at 37° C., 5% CO2 for 24 h prior to compound addition. Compound stock was freshly prepared in the appropriate culture medium, and added using a PAA robot equipped with a 200n1 pin tool. In a minimum of three replicate wells, single agent and combination effects after 72 hours, were assessed by both quantification of cellular ATP levels via Cell Titer Glo (Promega) according to the manufacturer's protocol and by microscopy imaging. For imaging, cells were fixed to the plates and permeabilized with a solution of 10% PFA, 0.3% TX-100 in PBS via a WellMate dispenser with controlled dispensing speeds. Cell nuclei were stained with Hoechst 33342 (H3570, Invitrogen), and all necessary washing steps were performed by a BioTek washer.
(§4) Data comprised triplicate measurements for each treatment (compound) condition, 42 replicates of DMSO-treated wells, and duplicates of Staurosporin-treated wells. The data was normalized to the median of the DMSO measurements and summarized by calculating the median of the triplicates. Data was imported into Chalice to calculate compound synergies.
(ATP-based viability assays read luminescence as a measure of living cells.)

The test system of experiment [2] is A-375 cells expressing mutant NRASQ61K. The experiment is described as above. As to conditions: Homo sapiens, A-375 NRASQ61K, single agent. As to the method:
as §1, §2, §3, §4

Experiment [3] concerns A-375 cells. The experiment is described as above. As to conditions: Homo sapiens, A-375 parent, single agent. As to the method: as §1, §2, §3, §4
Experiment [4] concerns SK-MEL-5. Put plainly: xCELLigence real-time impedance growth assay. The class given is cell-based. As to conditions: Formula (I) 100 nM, Compound H 1 uM. As to the method:
(§5) Shown is the growth in real time of the (Top A) COLO 741 and (Bottom B) SK-MEL-5 cell lines as measured using the xCELLigence impedance-based cell analyzer as discussed in Example 5. Where indicated FGF2 and Compound H were supplemented to the media at concentrations of 100 ng/ml, and 1 uM, respectively. The Compound of Formula (I) was used at 500 nM in (A) and 100 nM (B).
(§6) For CellTiter-Glo™ assays, cells were dispensed into tissue culture treated 96-well plates (Costar, catalog number 3904) with a final volume of 80 μL of medium and at density of 3000 cells per well. 12 to 24 hrs after plating, 20 μL of each compound dilution series were transferred to plates containing the cells, resulting in compound concentration ranges of 2700 nM to 3.7 nM by 3-fold dilutions and a final DMSO concentration of 0.16%. The total volume in each well was […]. Plates were incubated for 72 hrs and the effects of compounds on cell proliferation was determined using the CellTiter-Glo™ Luminescent Cell Viability Assay (CTG, Promega) and a Victor™ X4 plate reader (Perkin Elmer). For real-time growth assays cells were seeded into xCELLigence E-plates (Roche catalogue number 05232368001) at a density of 4000 cells per well in a total of 90 μl of media and 24 hrs after plating, 11 μl of media with or without compound was added to the wells. 2-4 replicate wells were plated for all cell lines and treatment groups with the exception of LGX818+FGF2 treated COLO 741 cells (N=1). Where indicated final concentrations of compounds and growth factor were 1 uM for Compound H, 100 ng/ml for FGF2, and either 100 nM (SK-MEL-5) or 500 nM (COLO 741) for the Compound of Formula (I). Cells were continuously monitored every two hours for seven days with the xCELLigence real-time impedance based cell analyzer. Impedance was measured using the electrodes on the E-plates, with increasing surface area coverage of cells creating greater electrode impedance. […] In all cases cell index values were normalized to a timepoint immediately following the addition of compound.
(§7) To determine whether rescue of BRAFV600E melanoma cell lines by FGF2 was dependent on FGFR signaling, we examined whether the selective FGFR inhibitor Compound H could prevent FGF2-mediated rescue. Two cell lines which were rescued to varying degrees by FGF2 (COLO 741, and SK-MEL-5, Table 8-1) were cultured in media containing the Compound of Formula (I) and FGF2 either in the presence or absence of Compound H and growth measured in real time.

Experiment [5] relates to COLO 741. The experiment is described as follows: xCELLigence real-time impedance growth assay. The class given is cell-based. The note with it: Formula (I) 500 nM, Compound H 1 uM. As to the method:
as §5, §6, §7

Experiment [6] deals with COLO 205. Put plainly: 72 hr cell titer Glo proliferation assay, BRAFV600E mutant CRC cell lines. Type of experiment: cell-based. As to conditions: Homo sapiens, COLO 205, single agent. Here is the method: (§8) Single agent and combinatorial effects on proliferation of inhibitors of RAF (Compound of Formula (I)) and PIK3Ca (Compound X) kinases in seven BRAF-mutant CRC-derived cell lines. All cell lines express the BRAFV600E protein. Cells harboring known or putative activating mutations in the PI3Kα gene are marked with a (*) and cells with PTEN loss marked with a (#). Cell proliferation was measured in 72 hr cell titer Glo™ assays and all results supplied are the result of at least triplicate measurements. Shown are single agent IC50 values for the Compound of Formula (I) and Compound X. Synergy score (SS) measurements as well as the combination index (C150) at the 50% effect level are given for each combination) in Table 6. Interactions were deemed synergistic when SS values were ≥2.0 and CI values were ≤0.5. Interactions were deemed additive/synergistic when either SS values were ≥2.0 but CI values were >0.5 or SS values were <2.0 but CI values were ≤0.5. Interactions where termed additive when SS values were <2.0 and CI values were >0.5. Synergy calls are given in the “effect description” columns.

For experiment [7], the system named is HT-29. The experiment is described as above. Type of experiment: cell-based. As to conditions: Homo sapiens, HT-29 (PI3Kα mutation), single agent. As to the method:
as §8

As usually defined, the IC50 is the midpoint of a concentration-inhibition curve. On to `COC(=O)N[C@@H](C)CNc1nccc(-c2cn(C(C)C)nc2-c2cc(Cl)cc(NS(C)(=O)=O)c2F)n1` [Compound of Formula (I)], for which the half-maximal inhibitory concentration (IC50) turned out to be 2 nM in experiment [1]; 134 nM in experiment [2]; 4 nM in experiment [3]; 5 nM in experiment [6]; 49 nM in experiment [7]. Further, the “growth in real time (cell index)” value in experiment [4] (SK-MEL-5, FGF2 100 ng/ml) is given as “growth suppression was abrogated”; in experiment [4] (SK-MEL-5, absence of FGF2) it was “suppressed the growth”; in experiment [5] (COLO 741, FGF2 100 ng/ml) it was “growth suppression was abrogated”; in experiment [5] (COLO 741, absence of FGF2), “suppressed the growth”.
